Earlier results, collected in Sander's compilation of Henry's law constants.
Where “and” joins values, the source holds several entries; their conditions need not be identical. Identical values can stand only once.

Experiment: Henry solubility constant Hcp at 298.15 K (mol/(m3 Pa))
Conditions: cited value
[1] = reference: Burkholder et al. (2015)
[2] = reference: Burkholder et al. (2019)
[3] = reference: Sander et al. (2006)
[4] = reference: Sander et al. (2011)
[5] = reference: Barcelo and Hennion (1997)

ClC(Cl)(Cl)Cl [tetrachloromethane]
Henry solubility constant Hcp (reference: Brockbank (2013)): 0.00035 | Henry solubility constant Hcp [1]: 0.00036 | Henry solubility constant Hcp [2]: 0.00036 | Henry solubility constant Hcp (reference: Dilling (1977)): 0.00046 | Henry solubility constant Hcp (reference: Goldstein (1982)): 0.00033 | Henry solubility constant Hcp (reference: Harrison et al. (1993)): 0.00038 and 0.00021 | Henry solubility constant Hcp (reference: Liss and Slater (1974)): 0.00037 | Henry solubility constant Hcp [3]: 0.00034 | Henry solubility constant Hcp [4]: 0.00034

FC(F)(F)C(F)(F)C(F)(F)C(F)(F)C(F)(F)C(F)(F)F [tetradecafluorohexane]
Henry solubility constant Hcp (reference: Brockbank (2013)): 9.3e-09

FC(F)(F)F [tetrafluoromethane]
Henry solubility constant Hcp [1]: 2.1e-06 | Henry solubility constant Hcp [2]: 2.1e-06 | Henry solubility constant Hcp [4]: 2.1e-06

C1CCOCC1 [tetrahydropyran]
Henry solubility constant Hcp (reference: Brockbank (2013)): 0.081

CN(C)C(=S)SSC(=S)N(C)C [thiram]
Henry solubility constant Hcp (reference: MacBean (2012b)): 30

C/C=C/CCCC [trans-2-heptene]
Henry solubility constant Hcp (reference: Brockbank (2013)): 2.4e-05

CC(C)N(C(=O)SCC(Cl)=C(Cl)Cl)C(C)C [triallate]
Henry solubility constant Hcp [5]: 0.01

COC(=O)c1ccccc1S(=O)(=O)NC(=O)N(C)c1nc(C)nc(OC)n1 [tribenuron-methyl]
Henry solubility constant Hcp (reference: MacBean (2012b)): 9.7e+07

O=C(O)C(Br)(Br)Br [tribromoethanoic acid]
Henry solubility constant Hcp [1]: 3000 | Henry solubility constant Hcp [2]: 3000 | Henry solubility constant Hcp [4]: 3000

BrC(Br)Br [tribromomethane]
Henry solubility constant Hcp (reference: Brockbank (2013)): 0.018 | Henry solubility constant Hcp [1]: 0.017 | Henry solubility constant Hcp [2]: 0.017 | Henry solubility constant Hcp (reference: Goldstein (1982)): 0.018 | Henry solubility constant Hcp (reference: Nicholson et al. (1984)): 0.017 | Henry solubility constant Hcp [3]: 0.017 | Henry solubility constant Hcp [4]: 0.017

O=C(O)C(Cl)(Cl)Cl [trichloroethanoic acid]
Henry solubility constant Hcp [1]: 730 | Henry solubility constant Hcp [2]: 730 | Henry solubility constant Hcp [4]: 730

ClC=C(Cl)Cl [trichloroethene]
Henry solubility constant Hcp (reference: Brockbank (2013)): 0.001 | Henry solubility constant Hcp [1]: 0.0011 | Henry solubility constant Hcp [2]: 0.0011 | Henry solubility constant Hcp (reference: Fogg and Sangster (2003)): 0.001 | Henry solubility constant Hcp (reference: Goldstein (1982)): 0.00088

CO/N=C(/C(=O)OC)c1ccccc1CO/N=C(\C)c1cccc(C(F)(F)F)c1 [trifloxystrobin]
Henry solubility constant Hcp (reference: MacBean (2012b)): 430

CCOC(=O)C(F)(F)F [trifluoroethanoic acid, ethyl ester]
Henry solubility constant Hcp [1]: 0.00089 | Henry solubility constant Hcp [2]: 0.00089 | Henry solubility constant Hcp [4]: 0.00089

COC(=O)C(F)(F)F [trifluoroethanoic acid, methyl ester]
Henry solubility constant Hcp [1]: 0.0011 | Henry solubility constant Hcp [2]: 0.0011 | Henry solubility constant Hcp [4]: 0.0011

FC(F)F [trifluoromethane]
Henry solubility constant Hcp [1]: 0.00013 | Henry solubility constant Hcp [2]: 0.00013 | Henry solubility constant Hcp [4]: 0.00013

CCCN(CCC)c1c([N+](=O)[O-])cc(C(F)(F)F)cc1[N+](=O)[O-] [trifluralin]
Henry solubility constant Hcp [5]: 0.0025 | Henry solubility constant Hcp (reference: HSDB (2015)): 0.096

CN(C)C [trimethylamine]
Henry solubility constant Hcp [1]: 0.099 | Henry solubility constant Hcp [2]: 0.099

COc1cc(C=O)ccc1O [vanillin]
Henry solubility constant Hcp (reference: Brockbank (2013)): 1700

C=CC1(C)OC(=O)N(c2cc(Cl)cc(Cl)c2)C1=O (stereo not drawn) [vinclozoline]
Henry solubility constant Hcp [5]: 7.6

[Xe] [xenon]
Henry solubility constant Hcp (reference: Clever (1979b)): 4.3e-05

S=C([S-])NCCNC(=S)[S-].[Zn+2] [zineb]
Henry solubility constant Hcp (reference: MacBean (2012b)): > 3700

ClC1C(Cl)C(Cl)C(Cl)C(Cl)C1Cl (stereo not drawn) [α-1,2,3,4,5,6-hexachlorocyclohexane]
Henry solubility constant Hcp (reference: Xiao et al. (2004)): 1.5 and 1.4

ClC1C(Cl)C(Cl)C(Cl)C(Cl)C1Cl (stereo not drawn) [β-1,2,3,4,5,6-hexachlorocyclohexane]
Henry solubility constant Hcp (reference: Xiao et al. (2004)): 27

ClC1C(Cl)C(Cl)C(Cl)C(Cl)C1Cl (stereo not drawn) [γ-1,2,3,4,5,6-hexachlorocyclohexane]
Henry solubility constant Hcp (reference: McCarty (1980)): 31 | Henry solubility constant Hcp (reference: Xiao et al. (2004)): 3.7 and 3.3
